{"source": "patent US9187396B2", "about": "“Compositions and methods for the treatment of glomerulonephritis” (Avexxin AS, priority 2009, dated 2015)", "key": {"[1]": {"system": "iNOS protein expression in mesangial cells", "test": "cytokine-stimulated iNOS protein expression, Western blot", "assay_type": "cell-based, rat", "conditions": "IL-1β (1 nM)", "description": "(§1) FIGS. 4A to 4C show the effect of the inhibitors of the examples on cytokine-stimulated iNOS protein (FIG. 4A) and mRNA (FIG. 4B) expression and promoter activity in mesangiai cells. Quiescent cells were stimulated with either vehicle (DMEM), IL-1β (1 nM), in the absence (−) or presence of the indicated concentrations (in μM) of AVX001 and AVX002. EtOH, vehicle control. In FIG. 4A, cells were taken for protein extraction and equal amount of. protein were separated by SDS-PAGE and subjected to a Western blot analysis using a polyclonal antibody against iNOS at a dilution of 1:2000. Data are representative of at least 3 independent experiments giving similar results. In FIG. 4B, cells were taken for RNA extraction and subjected to quantitative PCR analysis of rat iNOS and 18 S RNA. ΔΔCt values were calculated and results are expressed as % of maximal IL-1β response and are means±S.D (n=3). In FIG. 4C, cells were transfected with the rat iNOS promoter construct plus a plasmid coding for the Renilla luciferase. After transfection, cells were stimulated with vehicle (−), IL-1β (1 nM), or IL-1β plus 10 μM of AVX001. iNOS promoter activity was calculated and results are expressed as relative luciferase units (RLU) and are means±S.D.(n=3).\n(§2) To see whether this effect is due to altered gene transcription of iNOS, luciferase reporter gene assays were performed to measure iNOS promoter activity. […]"}, "[2]": {"system": "rat iNOS promoter", "test": "iNOS promoter activity, luciferase reporter gene assay", "assay_type": "cell-based", "conditions": "IL-1β (1 nM) plus 10 μM compound", "description": "as §1, §2"}, "[3]": {"system": "rat IIA-sPLA2 promoter", "test": "sPLA2 promoter activity, luciferase reporter gene assay", "assay_type": "cell-based", "conditions": "IL-1β (1 nM) plus 10 μM compound, 24 h", "description": "(§3) FIGS. 2A to 2C show the effect of the inhibitors of the examples on cytokine-stimulated sPLA2 protein (FIG. 2A) and mRNA (FIG. 2B) expression and promoter activity in mesangial cells. Quiescent cells were stimulated with either DMEM (−), or IL-1β (1 nM) in the absence (−) or presence of AKH-217 (etOH), vehicle control. In FIG. 2A, supernatants were taken for protein precipitation and precipitated proteins were separated by SDS-PAGE and subjected to a Western blot analysis using a monoclonal antibody against rat sPLA2. […] In FIG. 2B, cells were taken for RNA extraction and subjected to quantitative PCR analysis of rat IIA-sPLA2 and 18 S RNA. ΔΔCt values were calculated and results are expressed as % of maximal IL-1β-stimulated response and are means+S.D. (n=3). In FIG. 2C, cells were transfected with the sPLA2 promoter construct plus a plasmid coding for the Renilla luciferase. After transfection, cells were stimulated for 24 h with vehicle (−), IL-1β (1 nM), or IL-1β plus 10 μM of AKH-217. sPLA2 promoter activity was calculated and results are expressed as relative luciferase units (RLU) and are means±S.D. (n=3).\n(§4) It has been previously shown that the cytokine-induced PGE2 formation in mesangial cells involves both sPLA2 and cPLA2 activation (Pfeilschifter et al., 1993), we then investigated the effect of the inhibitors above on sPLA2 protein and mRNA expressions. […]"}, "[4]": {"system": "Nitric oxide (NO) formation in rat renal mesangial cells", "test": "cytokine-stimulated NO formation in mesangial cells (Griess Reaction assay)", "assay_type": "cell-based", "conditions": "IL-1β (1 nM), supernatant", "description": "Quiescent cells were stimulated with either DMEM (−), IL-1β (1 nM; +), in the absence or presence of the indicated concentrations of AKH-217, AVX002, or AACOCF3. Supernatants were collected and taken for nitric oxide (NO) quantification by using a Griess Reaction assay. Data are expressed as μM of NO in the supernatant and are means±S.D. (n=3).\nTo see whether this effect is due to altered gene transcription of iNOS, luciferase reporter gene assays were performed to measure iNOS promoter activity. A 4.5 kb fragment of the rat iNOS promoter was kindly provided by Dr. K. F. Beck (pharmazentrum frankfurt)."}, "[5]": {"system": "IIA-sPLA2 protein expression in mesangial cells", "test": "cytokine-stimulated sPLA2 protein expression and secretion, Western blot", "assay_type": "cell-based, rat", "conditions": "IL-1β (1 nM), supernatants", "description": "as §3, §4"}, "[6]": {"system": "phospho-p65 (NFκB)", "test": "IL-1β-stimulated NFκB activation, phospho-p65 Western blot", "assay_type": "cell-based, rat", "conditions": "IL-1β (2 nM) 30 min, 10 μM compound pretreated 2 h", "description": "FIGS. 6A to 6C show the effect of the inhibitors of the examples on IL-1β-stimulated NFκB activation in mesangial cells. In FIG. 6A, quiescent cells were stimulated for 30 min with either vehicle (DMEM), or IL-1β (2 nM) in the absence (−) or presence (+) of AVX001 or AVX002 (10 μM, pretreated 2 h). Thereafter, cell lysates were separated by SDS-PAGE and subjected to a Western blot analysis using a polyclonal antibody against phospho-p65 (NFκB) (upper panel), HuR as a loading control (middle panel), and IκB (lower panel). Data in FIG. 6A show duplicates of one representative experiments. FIGS. 6B and 6C show the densitometric evaluation of NFkB and IkB bands.\nNFkB activation was measured by Western blot analyses by detecting the amount of phospho-p65 which represents the active transcription factor subunit."}, "[7]": {"system": "IIA-sPLA2 mRNA expression in mesangial cells", "test": "cytokine-stimulated IIA-sPLA2 mRNA expression, quantitative PCR", "assay_type": "cell-based, rat", "conditions": "IL-1β (1 nM)", "description": "as §3, §4"}, "[8]": {"system": "mesangial cells", "test": "[3H]thymidine incorporation in mesangial cells (proliferation)", "assay_type": "cell-based, rat", "conditions": "insulin (100 ng/ml), IGF (50 ng/ml) or ATP (100 μM), 24 h", "description": "FIGS. 5A and 5B show the effect of the inhibitors of the examples on [^3H]thymidine incorporation in mesangial cells. In FIG. 5A, quiescent cells were stimulated for 24 h with vehicle (DMEM), or 100 μM of ATP in the absence (−) or presence of the indicated concentrations of AVX001 or AVX002, in the presence of [^3H]thymidine. In FIG. 5B, cells were stimulated for 24 h with insulin (100 ng/ml) or IGF (50 ng/ml) in the absence (−) or presence of 10 μM of AVX001 or AVX002, in the presence of [^3H]thymidine. Thymidine incorporated into DNA was determined and results are expressed as % of control and are means±S.D. (n=3). Glomerulonephritis is characterized in a first early phase by increased mesangial apoptosis which in a second phase is replaced by an opposite event, i.e. hyperproliferation of mesangial cells. Many previous studies have shown that quiescent mesangial cells in culture can re-enter the cell cycle when exposed to various growth factors, including PDGF, insulin, insulin-like growth factor (IGF), or extracellular nucleotides such as ATP and UTP. […] In the presence of either AKH217 or AVX002, agonist-stimulated [^3H]thymidine incorporation is reduced (FIGS. 5A and 5B). Similar data were also obtained when cells were stimulated with PDGF."}}, "data": [{"smiles": "CC/C=C\\C/C=C\\C/C=C\\C/C=C\\CC/C=C/CSCC(=O)C(F)(F)F", "note": "[AKH-217]", "values": [{"measurement": "effect on IL-1β-induced iNOS protein expression", "setting": "[1]", "value": "down-regulated"}, {"measurement": "effect on IL-1β-stimulated iNOS promoter activity", "setting": "[2]", "value": "completely lost"}, {"measurement": "effect on IL-1β-stimulated sPLA2 promoter activity", "setting": "[3]", "value": "completely reduced"}, {"measurement": "effect on IL-1β-stimulated NO formation", "setting": "[4]", "value": "reduced in a dose-dependent manner"}, {"measurement": "effect on IIA-sPLA2 protein expression and secretion", "setting": "[5]", "value": "able to reduce"}, {"measurement": "effect on IL-1β-induced increase of phospho-p65", "setting": "[6]", "value": "reduced"}, {"measurement": "effect on IIA-sPLA2 mRNA expression", "setting": "[7]", "value": "able to reduce"}, {"measurement": "effect on agonist-stimulated [3H]thymidine incorporation", "setting": "[8]", "value": "reduced"}]}]}
